In US20110218199A1, “PYRIDONEAMIDE DERIVATIVES, THEIR MANUFACTURE AND USE AS PHARMACEUTICAL AGENTS” (priority 2007, published 2011):

Test system: HCT 116 cells
Assay: CellTiter-Glo assay in HCT 116 cells (antiproliferative activity)
Format: cell-based
Settings: Homo sapiens, HCT-116, 120 h, CellTiter-Glo cell viability, HCT 116 human colon carcinoma, 5 days (120 h) incubation
From the text: Antiproliferative Activity:
CellTiter-Glo™ Assay in HCT 116 Cells:
The CellTiter-Glo™ Luminescent Cell Viability Assay (Promega) is a homogeneous method of determining the number of viable cells in culture based on quantitation of the ATP present, which signals the presence of metabolically active cells.
HCT 116 cells (human colon carcinoma, ATCC-No. CCl-247) were cultivated in RPMI 1640 medium with GlutaMAX• I (Invitrogen, Cat-No. 61870-010), 5% Fetal Calf Serum (FCS, Sigma Cat-No. F4135 (FBS)); 100 Units/ml penicillin/100 μg/ml streptomycin (=Pen/Strep from Invitrogen Cat. No. 15140). For the assay the cells were seeded in 384 well plates, 1000 cells per well, in the same medium. The next day the test compounds were added in various concentrations ranging from 30 μM to 0.0015 μM (10 concentrations, 1:3 diluted). After 5 days the CellTiter-Glo™ assay was done according to the instructions of the manufacturer (CellTiter-Glo™ Luminescent Cell Viability Assay, from Promega). In brief: the cell-plate was equilibrated to room temperature for approximately 30 minutes and than the CellTiter-Glo™ reagent was added. The contents were carefully mixed for 15 minutes to induce cell lysis. After 45 minutes the luminescent signal was measured in Victor 2, (scanning multiwell spectrophotometer, Wallac).
1st. Day: • Medium: RPMI 1640 with GlutaMAX™ I (Invitrogen, Cat-Nr. 61870), 5% FCS (Sigma Cat.-No. F4135), Pen/Strep (Invitrogen, Cat No. 15140). • HCT116 (ATCC-No. CC1-247): 1000 cells in 60 μl per well of 384 well plate (Greiner 781098, μClear-plate white) • After seeding incubate plates 24 h at 37° C., 5% CO2
2nd. Day: Induction (Treatment with Compounds, 10 Concentrations):
In order to achieve a final concentration of 30 μM as highest concentration 3.5 μl of 10 mM compound stock solution were added directly to 163 μl media. Then step e) of the dilution procedure described below, was followed.
In order to achieve the second highest to the lowest concentrations, a serial dilution with dilution steps of 1:3 was followed according to the procedure (a-e) as described here below: • a) for the second highest concentration add 10 μl of 10 mM stock solution of compound to 20 μl dimethylsulfoxide (DMSO) • b) dilute 8×1:3 (always 10 μl to 20 μl DMSO) in this DMSO dilution row (results in 9 wells with concentrations from 3333.3 μM to 0.51 μM) • c) dilute each concentration 1: 47.6 (3.5 μl compound dilution to 163 μl media) • d) add 10 μl of every concentration to 60 μl media in the cell plate resulting in final concentration of DMSO: 0.3% in every well and resulting in 10 final concentration of compounds ranging from 30 μM to 0.0015 μM. • Each compound is tested in triplicate. • Incubate 120 h (5 days) at 37° C., 5% CO2 […]
Add 30 μl CellTiter-Glo™ Reagent (prepared from CellTiter-Glo™ Buffer and CellTiter-Glo™ Substrate (lyophilized) purchased from Promega) per well, shake 15 minutes at room temperature incubate further 45 minutes at room temperature without shaking
Victor 2 scanning multiwell spectrophotometer (Wallac), Luminescence mode (0.5 sec/read, 477 nm) Determine IC50 using a non-linear curve fit (XLfit software (ID Business Solution Ltd., Guilford, Surrey, UK))

| IC50 [µM] | Structure (SMILES) |
| --- | --- |
| 0.5 to 15 | COc1ccc(NC(=O)c2c(NCCc3cccc(Cl)c3)cc[nH]c2=O)cc1N1CCN(C)CC1 [Example 6o, 4-[2-(3-Chloro-phenyl)-ethylamino]-2-oxo-1,2-dihydro-pyridine-3-carboxylic acid [4-methoxy-3-(4-methyl-piperazin-1-yl)-phenyl]-amide] |
| 0.5 to 15 | CN1CCN(c2cccc(NC(=O)c3c(NCCc4ccccc4)cc[nH]c3=O)c2)CC1 [Example 4v, 2-Oxo-4-phenethylamino-1,2-dihydro-pyridine-3-carboxylic acid [3-(4-methyl-piperazin-1-yl)-phenyl]-amide] |
| 0.5 to 15 | O=C(Nc1ccc(N2CCOCC2)c(F)c1)c1c(NCCc2cccc(Cl)c2)cc[nH]c1=O [Example 2a, 4-[2-(3-Chloro-phenyl)-ethylamino]-2-oxo-1,2-dihydro-pyridine-3-carboxylic acid (3-fluoro-4-morpholin-4-yl-phenyl)-amide] |
| 0.5 to 15 | CC(CNc1cc[nH]c(=O)c1C(=O)Nc1ccc(N2CCN(C)CC2)cc1)c1ccccc1 (stereo not drawn) [Example 6ae, 2-Oxo-4-(2-phenyl-propylamino)-1,2-dihydro-pyridine-3-carboxylic acid [4-(4-methyl-piperazin-1-yl)-phenyl]-amide] |
| 0.5 to 15 | CN1CCN(c2ccc(NC(=O)c3c(NCc4ccccn4)cc[nH]c3=O)cc2)CC1 [Example 2s, 2-Oxo-4-[(pyridin-2-ylmethyl)-amino]-1,2-dihydro-pyridine-3-carboxylic acid [4-(4-methyl-piperazin-1-yl)-phenyl]-amide] |
| 0.5 to 15 | CN1CCN(c2cccc(NC(=O)c3c(NCCc4c[nH]c5ccccc45)cc[nH]c3=O)c2)CC1 [Example 4ae, 4-[2-(1H-Indol-3-yl)-ethylamino]-2-ozo-1,2-dihydro-pyridine-3-carboxylic acid [3-(4-methyl-piperazin-1-yl)-phenyl]-amide] |
| 0.5 to 15 | COc1ccc(NC(=O)c2c(NC[C@@H](O)c3cccc(Cl)c3)cc[nH]c2=O)cc1N1CCN(C)CC1 [Example 4i, 4-[(S)-2-(3-Chloro-phenyl)-2-hydroxy-ethylamino]-2-oxo-1,2-dihydro-pyridine-3-carboxylic acid [4-methoxy-3-(4-methyl-piperazin-1-yl)-phenyl]-amide] |
| 0.5 to 15 | O=C(Nc1cccc(N2CCCCC2)c1)c1c(NCc2ccccn2)cc[nH]c1=O [Example 2o, 2-Oxo-4-[(pyridin-2-ylmethyl)-amino]-1,2-dihydro-pyridine-3-carboxylic acid (3-piperidin-1-yl-phenyl)-amide] |
| 0.5 to 15 | O=C(Nc1cccc(N2CCCC2)c1)c1c(NCCc2cccc(Cl)c2)cc[nH]c1=O [Example 2e, 4-[2-(3-Chloro-phenyl)-ethylamino]-2-oxo-1,2-dihydro-pyridine-3-carboxylic acid (3-pyrrolidin-1-yl-phenyl)-amide] |
| 0.5 to 15 | CS(=O)(=O)c1cccc(NC(=O)c2c(NC[C@@H](O)c3cccc(Cl)c3)cc[nH]c2=O)c1 [Example 4p, 4-[(S)-2-(3-Chloro-phenyl)-2-hydroxy-ethylamino]-2-oxo-1,2-dihydro-pyridine-3-carboxylic acid (3-methanesulfonyl-phenyl)-amide] |
| 0.5 to 15 | O=C(Nc1cccc(N2CCCCC2)c1)c1c(NCCc2cccc(Cl)c2)cc[nH]c1=O [Example 2n, 4-[2-(3-Chloro-phenyl)-ethylamino]-2-oxo-1,2-dihydro-pyridine-3-carboxylic acid (3-piperidin-1-yl-phenyl)-amide] |
| 0.5 to 15 | CN1CCN(c2ccc(NC(=O)c3c(NC[C@@H](O)c4cccc(Cl)c4)cc[nH]c3=O)cc2)CC1 [Example 2p, 4-[(S)-2-(3-Chloro-phenyl)-2-hydroxy-ethylamino]-2-oxo-1,2-dihydro-pyridine-3-carboxylic acid [4-(4-methyl-piperazin-1-yl)-phenyl]-amide] |
| 0.5 to 15 | COc1ccc(NC(=O)c2c(NCC(C)c3ccccc3)cc[nH]c2=O)cc1N1CCN(C)CC1 (stereo not drawn) [Example 6j, 2-Oxo-4-(2-phenyl-propylamino)-1,2-dihydro-pyridine-3-carboxylic acid [4-methoxy-3-(4-methyl-piperazin-1-yl)-phenyl]-amide] |
| 0.5 to 15 | CC(=O)N1CCN(c2ccc(NC(=O)c3c(NCC(O)c4ccccc4)cc[nH]c3=O)cc2C(F)(F)F)CC1 (stereo not drawn) [Example 3, 4-(2-Hydroxy-2-phenyl-ethylamino)-2-oxo-1,2-dihydro-pyridine-3-carboxylic acid[4-(4-acetyl-piperazin-1-yl)-3-trifluoromethyl-phenyl]-amide] |
| 0.5 to 15 | CN1CCN(c2ccc(NC(=O)c3c(NCc4ccccn4)cc[nH]c3=O)cc2F)CC1 [Example 2k, 2-Oxo-4-[(pyridin-2-ylmethyl)-amino]-1,2-dihydro-pyridine-3-carboxylic acid [3-fluoro-4-(4-methyl-piperazin-1-yl)-phenyl]-amide] |
| 0.5 to 15 | CSc1cccc(NC(=O)c2c(NC[C@@H](O)c3cccc(Cl)c3)cc[nH]c2=O)c1 [Example 4q, 4-[(S)-2-(3-Chloro-phenyl)-2-hydroxy-ethylamino]-2-oxo-1,2-dihydro-pyridine-3-carboxylic acid (3-methylsulfanyl-phenyl)-amide] |
| 0.5 to 15 | Cc1cccc(CCNc2cc[nH]c(=O)c2C(=O)Nc2cccc(N3CCN(C)CC3)c2)c1 [Example 4aa, 2-Oxo-4-(2-m-tolyl-ethylamino)-1,2-dihydro-pyridine-3-carboxylic acid [3-(4-methyl-piperazin-1-yl)-phenyl]-amide] |
| 0.5 to 15 | CC(CNc1cc[nH]c(=O)c1C(=O)Nc1cccc(N2CCOCC2)c1)c1ccccc1 (stereo not drawn) [Example 6g, 2-Oxo-4-(2-phenyl-propylamino)-1,2-dihydro-pyridine-3-carboxylic acid (3-morpholin-4-yl-phenyl)-amide] |
| 0.5 to 15 | O=C(Nc1cccc(CN2CCCCC2)c1)c1c(NCCc2ccccc2)cc[nH]c1=O [Example 6t, 2-Oxo-4-phenethylamino-1,2-dihydro-pyridine-3-carboxylic acid (3-piperidin-1-ylmethyl-phenyl)-amide] |
| 0.5 to 15 | O=C(Nc1cccc(CN2CCCC2)c1)c1c(NCCc2ccccc2)cc[nH]c1=O [Example 6w, 2-Oxo-4-phenethylamino-1,2-dihydro-pyridine-3-carboxylic acid (3-pyrrolidin-1-ylmethyl-phenyl)-amide] |
| 0.5 to 15 | COc1ccc(NC(=O)c2c(NC3CCCCC3)cc[nH]c2=O)cc1N1CCN(C)CC1 [Example 6m, 4-Cyclohexylamino-2-oxo-1,2-dihydro-pyridine-3-carboxylic acid [4-methoxy-3-(4-methyl-piperazin-1-yl)-phenyl]-amide] |
| 0.5 to 15 | CC(CNc1cc[nH]c(=O)c1C(=O)Nc1cccc(CN2CCCCC2)c1)c1ccccc1 (stereo not drawn) [Example 6u, 2-Oxo-4-(2-phenyl-propylamino)-1,2-dihydro-pyridine-3-carboxylic acid (3-piperidin-1-ylmethyl-phenyl)-amide] |
| 0.5 to 15 | CN1CCN(c2ccc(NC(=O)c3c(NCCc4ccccc4)cc[nH]c3=O)cc2)CC1 [Example 6ad, 2-Oxo-4-phenethylamino-1,2-dihydro-pyridine-3-carboxylic acid [4-(4-methyl-piperazin-1-yl)-phenyl]-amide] |
| 0.5 to 15 | CN1CCN(c2ccc(NC(=O)c3c(NCCc4cccc(Cl)c4)cc[nH]c3=O)cc2F)CC1 [Example 4a, 4-[2-(3-Chloro-phenyl)-ethylamino]-2-oxo-1,2-dihydro-pyridine-3-carboxylic acid [3-fluoro-4-(4-methyl-piperazin-1-yl)-phenyl]-amide] |
